From patent publication US8071570B2, “Mixtures of polysaccharides derived from heparin, their preparation and pharmaceutical compositions containing them” (Aventis Pharma S.A., priority 2002, dated 2011)

Assays:
[1] = test system: activated factor X (factor Xa); assay: anti-Xa activity, amidolytic method on a chromogenic substrate; assay type: biochemical; details: isolated hexasaccharide
Experimental: The anti-Xa activity is measured by the amidolytic method on a chromogenic substrate described by Teien et al., Thromb. Res., 10, 399-410 (1977), with, as standard, the first international standard for low-molecular-weight heparins. See Barrowcliffe, T. W., A. D. Curtis, et al. (1985). “Standardization of Low Molecular Weight Heparins: A Collaborative Study.” Thrombosis and Haemostasis 54: 675-679; and Barrowcliffe, T. W. (1988). “An International Standard for Low Molecular Weight Heparin.” Thrombosis and Haemostasis 60:1-7.

[2] = target: ATIII (Homo sapiens, UniProt P01008)
ATIII, sequence (P01008 33-464, species assumed): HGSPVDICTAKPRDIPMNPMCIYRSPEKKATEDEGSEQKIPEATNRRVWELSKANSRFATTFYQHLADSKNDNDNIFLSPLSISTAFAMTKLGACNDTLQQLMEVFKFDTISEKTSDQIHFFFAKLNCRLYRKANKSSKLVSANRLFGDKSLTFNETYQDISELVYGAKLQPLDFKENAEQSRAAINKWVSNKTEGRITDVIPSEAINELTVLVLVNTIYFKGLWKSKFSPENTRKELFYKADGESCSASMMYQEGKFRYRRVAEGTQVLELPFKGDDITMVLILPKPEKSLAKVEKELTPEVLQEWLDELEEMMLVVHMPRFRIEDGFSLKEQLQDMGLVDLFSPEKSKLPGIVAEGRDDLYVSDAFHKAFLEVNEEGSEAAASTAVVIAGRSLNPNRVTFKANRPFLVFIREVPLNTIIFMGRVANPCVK

Which aXa activity [1] does the source give for `CC(=O)N[C@H]1[C@@H](O[C@H]2[C@H](O)[C@@H](O)[C@H](O[C@H]3[C@H](OS(=O)(=O)O)[C@@H](NS(=O)(=O)O)[C@@H](O[C@H]4[C@H](O)[C@@H](OS(=O)(=O)O)[C@H](O[C@H]5[C@H](O)[C@@H](NS(=O)(=O)O)[C@@H](O)O[C@@H]5COS(=O)(=O)O)O[C@H]4C(=O)O)O[C@@H]3COS(=O)(=O)O)O[C@@H]2C(=O)O)O[C@H](COS(=O)(=O)O)[C@@H](O[C@@H]2OC(C(=O)O)=C[C@H](O)[C@H]2O)[C@@H]1O` [hexasaccharide ΔIIa-IIs-Is] here?
The aXa activity was “greater than 740 U/mg”.

What about the “affinity for ATIII” value [2] of the same compound?
Its value is “high affinity”.
